These compounds were tested against IgE-Tb / sFcεRIα-Y131A-AF488 (Homo sapiens, UniProt P01854, N146Q/N252Q) (assay: IgE-Tb / sFcεRIα-Y131A-AF488 FRET assay (protocol for examples 234 to 501)). Conditions: examples 234 to 501: compound with IgE-Tb 30 minutes before sFcεRIα-Y131A-AF488, incubated 18 hours at room temperature; read-out: Y131A FRET IC50 range.
IgE-Tb / sFcεRIα-Y131A-AF488, sequence (P01854 whole entry N146Q/N252Q): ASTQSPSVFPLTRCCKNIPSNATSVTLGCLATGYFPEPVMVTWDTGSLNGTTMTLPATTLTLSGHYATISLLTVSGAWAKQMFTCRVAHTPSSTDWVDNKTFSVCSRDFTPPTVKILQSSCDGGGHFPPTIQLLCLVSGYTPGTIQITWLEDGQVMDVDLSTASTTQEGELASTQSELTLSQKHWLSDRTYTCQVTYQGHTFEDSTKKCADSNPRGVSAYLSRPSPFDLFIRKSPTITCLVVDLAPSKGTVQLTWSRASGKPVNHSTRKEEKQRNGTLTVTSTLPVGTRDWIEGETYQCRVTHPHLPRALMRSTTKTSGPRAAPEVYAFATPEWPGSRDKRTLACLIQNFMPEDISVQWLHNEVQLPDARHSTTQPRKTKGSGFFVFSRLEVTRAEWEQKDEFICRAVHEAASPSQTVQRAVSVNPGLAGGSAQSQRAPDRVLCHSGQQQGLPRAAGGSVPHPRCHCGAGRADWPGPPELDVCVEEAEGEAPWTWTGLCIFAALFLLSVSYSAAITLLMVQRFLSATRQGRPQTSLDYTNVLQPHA
Assay type: binding
Method: For examples 234 to 501, the assay was conducted according to the following: Each assay reaction was conducted in a volume of 25 μl in a 384-well half-volume plate. 10 point compound serial dilutions (3-fold) were generated in DMSO at a concentration of ×50 that of the final assay concentration (FAC). Compound solutions were then prepared by diluting 10-fold in assay buffer. For the assay, 5l of diluted compound was added to 10 μl of IgE-Tb and incubated for 30 minutes before the addition of 10 μ[…]. FRET reagents FACs were 5 nM IgE-Tb, 25 nM […]. Usually the top FAC of compound in the assay was 10 μM. The final DMSO concentration was 2%. […] The maximum FRET signal (MAX) was measured in wells containing FRET reagents but no compound. The assay was incubated for 18 hours at room temperature, protected from light and evaporation, and with gentle agitation. Measurement of FRET for each well was carried out by exciting at 337 nm and measuring emission at 490/520 nm using a PHERAstar FSX plate reader (BMG Labtech). FRET ratio was calculated as follows: Emission at 520/7Emission at 490×1000. The FRET ratio was used for the data analysis. […] Z' above 0.5 was considered a good assay. Background signal (MIN) was subtracted from all wells. […] Percent inhibition was plotted against compound concentration. IC50 values for each compound were determined using four parameter logistic fit model using the XLFIT5 software package.
Compound Cn1nc(OC(F)F)cc1Nc1nncn1[C@H]1CCc2sc(NC(=O)C3CC3)c(C(=O)NCC3CC3(F)F)c2C1 (mixture of isomers) [Example 458, (5S)-2-(cyclopropanecarbonylamino)-N-[(2,2-difluorocyclopropyl)methyl]-5-[3-[[5-(difluoromethoxy)-2-methylpyrazol-3-yl]amino]-1,2,4-triazol-4-yl]-4,5,6,7-tetrahydro-1-benzothiophene-3-carboxamide] has an IC50 of less than 1000 nM. In the case of Cn1nc(C(F)F)cc1Nc1nncn1[C@H]1CCc2sc(NC(=O)C3CC3(F)F)c(C(=O)N[C@H]3C[C@H](F)C3)c2C1 (mixture of isomers) [Example 493, (5S)-2-[(2,2-difluorocyclopropanecarbonyl)amino]-5-[3-[[5-(difluoromethyl)-2-methyl-pyrazol-3-yl]amino]-1,2,4-triazol-4-yl]-N-(trans-3-fluorocyclobutyl)-4,5,6,7-tetrahydrobenzothiophene-3-carboxamide], the IC50 is reported as less than 1000 nM. Cn1nc(C(F)F)cc1Nc1nncn1[C@H]1CCc2sc(NC(=O)C3CC3)c(C(=O)NC3CC34CC4)c2C1 (mixture of isomers) [Example 494, (5S)-2-cyclopropaneamido-5-(3-{[3-(difluoromethyl)-1-methyl-1H-pyrazol-5-yl]amino}-4H-1,2,4-triazol-4-yl)-N-{spiro[2.2]pentan-1-yl}-4,5,6,7-tetrahydro-1-benzothiophene-3-carboxamide] gave an IC50 of less than 1000 nM. Cn1nc(C(F)F)cc1Nc1nncn1[C@H]1CCc2sc(NC(=O)[C@@H]3C[C@H]3F)c(C(=O)NCC3CC3)c2C1 (racemic) [Example 366, (5S)—N-(cyclopropylmethyl)-5-[3-[[5-(difluoromethyl)-2-methylpyrazol-3-yl]amino]-1,2,4-triazol-4-yl]-2-[[(1RS,2SR)-2-fluorocyclopropanecarbonyl]amino]-4,5,6,7-tetrahydro-1-benzothiophene-3-carboxamide] was tested, and the IC50 was less than 1000 nM. C[C@H]1c2c(sc(NC(=O)C3CC3)c2C(=O)NCC2CC2)CC[C@@H]1n1cnnc1Nc1cc(C(F)(F)F)nn1C (racemic) [Example 421, (4RS,5RS)-2-(cyclopropanecarbonylamino)-N-(cyclopropylmethyl)-4-methyl-5-[3-[[2-methyl-5-(trifluoromethyl)pyrazol-3-yl]amino]-1,2,4-triazol-4-yl]-4,5,6,7-tetrahydrobenzothiophene-3-carboxamide] showed an IC50 of less than 1000 nM. With Cn1nc(C(F)F)cc1Nc1nncn1[C@H]1CCc2sc(NC(=O)C3CC3)c(C(=O)NC[C@H]3C[C@H](F)C3)c2C1 (racemic) [Example 497, (5S)-2-(cyclopropanecarbonylamino)-5-[3-[[5-(difluoromethyl)-2-methyl-pyrazol-3-yl]amino]-1,2,4-triazol-4-yl]-N-[(3-fluorocyclobutyl)methyl]-4,5,6,7-tetrahydrobenzothiophene-3-carboxamide] the IC50 was less than 1000 nM. Compound C[C@H]1CCCN1C(=O)c1ncn([C@H]2CCc3sc(NC(=O)[C@H]4C[C@H]4F)c(C(=O)NCC4CC4)c3C2)c1N (relative stereo) [Example 259, (5S)-5-[5-amino-4-[(2S)-2-methylpyrrolidine-1-carbonyl]imidazol-1-yl]-N-(cyclopropylmethyl)-2-[[(1R*,2R*)-2-fluorocyclopropanecarbonyl]amino]-4,5,6,7-tetrahydrobenzothiophene-3-carboxamide] has an IC50 of less than 1000 nM. Cn1nc(C(F)F)cc1Nc1nncn1[C@H]1CCc2sc(NC(=O)[C@@H]3CC3(F)F)c(C(=O)NC[C@@H]3C[C@@H]3F)c2C1 (relative stereo) [Example 284, (5S)-2-[[(1S*)-2,2-difluorocyclopropanecarbonyl]amino]-5-[3-[[5-(difluoromethyl)-2-methyl-pyrazol-3-yl]amino]-1,2,4-triazol-4-yl]-N-[[(1S,2S)-2-fluorocyclopropyl]methyl]-4,5,6,7-tetrahydrobenzothiophene-3-carboxamide [* or R]] gave an IC50 of less than 1000 nM. With O=C(NCC1CC1)c1c(NC(=O)C2CC2)sc2c1C[C@@H](n1cnnc1N[C@H]1CN(C(=O)c3ccccc3)CC1(F)F)CC2 (relative stereo) [Example 285, (5S)-5-[3-[[(3S*)-1-benzoyl-4,4-difluoro-pyrrolidin-3-yl]amino]-1,2,4-triazol-4-yl]-2-(cyclopropanecarbonylamino)-N-(cyclopropylmethyl)-4,5,6,7-tetrahydrobenzothiophene-3-carboxamide [* or R]] the IC50 was less than 1000 nM. Cn1nc(C(F)F)cc1Nc1nncn1[C@H]1CCc2sc(NC(=O)[C@@H]3CC34CC4)c(C(=O)NCC3CC3)c2C1 (relative stereo) [Example 311, (5S)—N-(cyclopropylmethyl)-5-[3-[[5-(difluoromethyl)-2-methyl-pyrazol-3-yl]amino]-1,2,4-triazol-4-yl]-2-[[(2R*)-spiro[2.2]pentane-2-carbonyl]amino]-4,5,6,7-tetrahydrobenzothiophene-3-carboxamide [* or S]] was tested, and the IC50 was less than 1000 nM. For Cn1nc(OC(F)F)cc1Nc1nncn1[C@H]1CCc2sc(NC(=O)[C@H]3CC3(F)F)c(C(=O)NCC3CC3)c2C1 (relative stereo) [Example 345, (5S)—N-(cyclopropylmethyl)-2-[[(1R*)-2,2-difluorocyclopropanecarbonyl]amino]-5-[3-[[5-(difluoromethoxy)-2-methylpyrazol-3-yl]amino]-1,2,4-triazol-4-yl]-4,5,6,7-tetrahydro-1-benzothiophene-3-carboxamide (* or S)], the IC50 was less than 1000 nM. Compound Cn1nc(C(F)F)cc1Nc1nncn1[C@H]1CCc2sc(NC(=O)[C@@H]3CC3(F)F)c(C(=O)NCC3CC3)c2C1 (relative stereo) [Example 365, (5S)—N-(cyclopropylmethyl)-2-[[(1R*)-2,2-difluorocyclopropanecarbonyl]amino]-5-[3-[[5-(difluoromethyl)-2-methylpyrazol-3-yl]amino]-1,2,4-triazol-4-yl]-4,5,6,7-tetrahydro-1-benzothiophene-3-carboxamide (* or S)] has an IC50 of less than 1000 nM. Compound C[C@@H]1C[C@H]1C(=O)Nc1sc2c(c1C(=O)NCC1CC1)C[C@@H](n1cnnc1Nc1cc(C(F)F)nn1C)CC2 (relative stereo) [Example 370, (5S)—N-(cyclopropylmethyl)-5-[3-[[5-(difluoromethyl)-2-methylpyrazol-3-yl]amino]-1,2,4-triazol-4-yl]-2-[[(1R*,2R*)-2-methylcyclopropanecarbonyl]amino]-4,5,6,7-tetrahydro-1-benzothiophene-3-carboxamide (* or S)] has an IC50 of less than 1000 nM. In the case of C[C@H]1C[C@H]1C(=O)Nc1sc2c(c1C(=O)NCC1CC1)C[C@@H](n1cnnc1Nc1cc(C(F)F)nn1C)CC2 (relative stereo) [Example 371, (5S)—N-(cyclopropylmethyl)-5-[3-[[5-(difluoromethyl)-2-methylpyrazol-3-yl]amino]-1,2,4-triazol-4-yl]-2-[[(1R*,2S*)-2-methylcyclopropanecarbonyl]amino]-4,5,6,7-tetrahydro-1-benzothiophene-3-carboxamide (*1R,2S or 1S,2R)], the IC50 is reported as less than 1000 nM. Compound Cn1nc(C(F)F)cc1Nc1nncn1[C@H]1CCc2sc(NC(=O)C3CC3)c(C(=O)NC[C@@H]3CC3(C)C)c2C1 (relative stereo) [Example 372, (5S)-2-(cyclopropanecarbonylamino)-5-[3-[[5-(difluoromethyl)-2-methylpyrazol-3-yl]amino]-1,2,4-triazol-4-yl]-N-[[(1R*)-2,2-dimethylcyclopropyl]methyl]-4,5,6,7-tetrahydro-1-benzothiophene-3-carboxamide (* or S)] has an IC50 of less than 1000 nM. Cn1nc(OC(F)F)cc1Nc1nncn1[C@H]1CCc2sc(NC(=O)[C@H]3C[C@@H]3F)c(C(=O)N[C@H]3CC34CC4)c2C1 (relative stereo) [Example 376, (5S)-5-[3-[[5-(difluoromethoxy)-2-methylpyrazol-3-yl]amino]-1,2,4-triazol-4-yl]-2-[[(1R,2S)-2-fluorocyclopropanecarbonyl]amino]-N-[(2R*)-spiro[2.2]pentan-2-yl]-4,5,6,7-tetrahydro-1-benzothiophene-3-carboxamide (* or S)] was tested, and the IC50 was less than 1000 nM. Compound COc1cc(Nc2nncn2[C@H]2CCc3sc(NC(=O)[C@@H]4CC45CC5)c(C(=O)NCC4CC4)c3C2)n(C)n1 (relative stereo) [Example 455, (5S)—N-(cyclopropylmethyl)-5-[3-[(5-methoxy-2-methyl-pyrazol-3-yl)amino]-1,2,4-triazo-4-yl]-2-[[(2R*)-spiro[2.2]pentane-2-carbonyl]amino]-4,5,6,7-tetrahydrobenzothiophene-3-carboxamide (* or S)] has an IC50 of less than 1000 nM. For COc1cc(Nc2nncn2[C@H]2CCc3sc(NC(=O)[C@H]4C[C@@H]4C)c(C(=O)N[C@@H]4CC45CC5)c3C2)n(C)n1 (relative stereo) [Example 465, (5S)-5-[3-[(5-methoxy-2-methyl-pyrazol-3-yl)amino]-1,2,4-triazol-4-yl]-2-[[(1S,2S)-2-methylcyclopropanecarbonyl]amino]-N-[(2R*)-spiro[2.2]pentan-2-yl]-4,5,6,7-tetrahydrobenzothiophene-3-carboxamide [* or 5]], the IC50 was less than 1000 nM.
